Assay results: patent US12227534B2, “Method for preparing nicotinamide mononucleotide by using nicotinamide as raw material” (BONTAC BIO-ENGINEERING(SHENZHEN) CO., LTD., priority 2020, dated 2025)

Legend:
[1] = Long-term stability of nicotinamide ribose solution after pH adjustment with sodium bicarbonate; type: physicochemical; settings: 2-4° C., storage time 45 days
Text: (§1) The results of various parameters in the preparation of the intermediate product nicotinamide ribose solution are shown in Table 1 to Table 5.

[2] = Long-term stability of nicotinamide ribose solution after pH adjustment with hydrochloric acid; type: physicochemical; settings: storage temperature 0-4° C., storage time 45 days
Text: as §1

nicotinamide ribose [nicotinamide ribose solution]
Stability (degradation) ([1]; pH 4 (sodium bicarbonate)): 2.4%
Stability (degradation) ([1]; pH 5 (sodium bicarbonate)): 3.7%
Stability (degradation) ([2]; pH 4 (hydrochloric acid)): 1.3%
Stability (degradation) ([2]; pH 5 (hydrochloric acid)): 2.1%
